Reference: patent US4729995A, “Pyrimidine 2,4-dioxamate compounds and pharmaceutical compositions” (Toyo Boseki Kabushiki Kaisha, priority 1986, dated 1988)
Read-outs that look alike come from different tables or passages of the source.

Experiments:
[1] = system: SRS-A release; assay: Inhibition of SRS-A release from passively sensitized guinea pig lung suspension, bioassay on isolated guinea pig ileum (Experiment 1); assay type: cell-based, Hartley guinea pig; settings: Cavia porcellus, 37° C, read-out: Release inhibitory rate, SRS-A
Procedure: (§1) Hartley guinea pig (male, weighing about 400 g) was passively sensitized by an intravenous injection of anti-egg albumin guinea pig serum. 48 hours after the sensitization, the lung was taken out and cut finely to prepare a lung suspension. To the suspension were added a test compound and egg albumin, and the mixture was incubated at 37° C. After the reaction, the mixture was centrifuged, and then the amount of histamine and SRS-A in the supernatant was measured. The amount of histamine was measured by a fluorometry in accordance with the method of May et al [cf. J. Allerg., Vol. 40, page 12 (1970)]. The amount of SRS-A was measured by a bioassay using an isolated guinea pig ileum. That is, the guinea pig ileum was suspended within Magnus vessel, and thereto were added an antihistaminic, an antiacetylcholine agent and a test solution, and based on the shrink of guinea pig ileum, the amount of SRS-A was calculated.

[2] = system: Histamine release; assay: Inhibition of histamine release from passively sensitized guinea pig lung suspension (Experiment 1); assay type: cell-based, Hartley guinea pig; settings: Cavia porcellus, 37° C, fluorometry, read-out: Release inhibitory rate, Histamine
Procedure: as §1

[3] = system: PCA (passive cutaneous anaphylaxis); assay: Passive cutaneous anaphylaxis (PCA) inhibition in rats (Experiment 2); assay type: in vivo, Wistar rats; settings: Rattus norvegicus, read-out: PCA inhibitory rate; for inhibition in vivo at 3 mg/kg: 3 mg/kg intravenous, 5 minutes before antigen challenge, six rats (Table 5); for inhibition in vivo at 30 mg/kg: 30 mg/kg oral; for inhibition in vivo at 200 mg/kg: 200 mg/kg oral, one hour before induction of PCA, six rats (Table 2)
Procedure: Wistar rats (male, weighing about 200 g) were passively sensitized by an intradermal injection of each 0.1 ml of anti-egg albumin rat serum both sides of median line on back of the animals (each two points, totally 4 points). After 48 hours, a mixture (1 ml) of egg albumin and Evans blue was injected via tail vein, by which PCA (passive cutaneous anaphylaxis) was induced. After 30 minutes, the blue colored region was cut out and the amount of color was measured by the method of Katayama et al [cf. Microbiol. Immunol., Vol. 22, page 89 (1978)]. One hour before the induction of PCA, each test compound was orally administered to six rats at a dose of 200 mg/kg per each rat.
In the above experiments, the test compound was orally administered to six rats at a dose of 30 mg/kg per each rat one hour before the antigen challenge.
In the above experiments, the test compound was orally administered to six rats at a dose of 30 mg/kg per each rat 30 minutes before the antigen challenge.
In the above experiments, the test compound was intravenously administered to six rats at a dose of 3 mg/kg per each rat 5 minutes before the antigen challenge.

[4] = 1 h, one hour before antigen challenge, six rats (Table 3)
[5] = 30 minutes before antigen challenge, six rats (Table 4)

| Compound | inhibition at 100 µM [1] [%] | inhibition at 100 µM [2] [%] | inhibition in vivo at 3 mg/kg [3] [%] | inhibition in vivo at 30 mg/kg [3, 4] [%] | inhibition in vivo at 200 mg/kg ([3]; 1 h) [%] | inhibition in vivo at 30 mg/kg [3, 5] [%] |
| --- | --- | --- | --- | --- | --- | --- |
| CCOC(=O)C(=O)Nc1cc(N2CCN(C)CC2)nc(NC(=O)C(=O)OCC)n1 [diethyl 6-(4-methylpiperazino)pyrimidine-2,4-dioxamate] | 33.3 | 23.7 | – | – | – | – |
| O=C(O)C(=O)Nc1cc(N2CCCCC2)nc(NC(=O)C(=O)O)n1 [6-piperidinopyrimidine-2,4-dioxamic acid hydrate] | 43.2 | 20.5 | 100 | – | – | – |
| O=C(Nc1cc(N2CCCCC2)nc(NC(=O)C(=O)OCc2ccccc2)n1)C(=O)OCc1ccccc1 [dibenzyl 6-piperidinopyrimidine-2,4-dioxamate semihydrate] | 48.6 | 26.5 | – | – | – | – |
| COC(=O)C(=O)Nc1cc(N2CCOCC2)nc(NC(=O)C(=O)OC)n1 [dimethyl 6-morpholinopyrimidine-2,4-dioxamate] | 47.3 | 27.7 | 100 | 98.5 | – | – |
| O=C(O)C(=O)Nc1cc(N2CCOCC2)nc(NC(=O)C(=O)O)n1 [6-morpholinopyrimidine-2,4-dioxamic acid hydrate] | 47.3 | 21.2 | 100 | – | – | – |
| O=C(Nc1cc(N2CCOCC2)nc(NC(=O)C(=O)OCc2ccccc2)n1)C(=O)OCc1ccccc1 [dibenzyl 6-morpholinopyrimidine-2,4-dioxamate] | 52.6 | 31.1 | – | – | – | – |
| COC(=O)C(=O)Nc1cc(N2CCCC2)nc(NC(=O)C(=O)OC)n1 [dimethyl 6-pyrrolidinopyrimidine-2,4-dioxamate] | 40.2 | 19.9 | – | 81.2 | – | – |
| CCOC(=O)C(=O)Nc1cc(N2CCCC2)nc(NC(=O)C(=O)OCC)n1 [diethyl 6-pyrrolidinopyrimidine-2,4-dioxamate] | 32.8 | 16.1 | – | – | 87.3 | 73.1 |
| COC(=O)C(=O)Nc1cc(N2CCCCCC2)nc(NC(=O)C(=O)OC)n1 [dimethyl 6-homopiperidinopyrimidine-2,4-dioxamate] | 49.2 | 26.3 | – | 76.9 | – | – |
| CCCOC(=O)C(=O)Nc1cc(N2CCCCC2)nc(NC(=O)C(=O)OCCC)n1 [di-n-propyl 6-piperidinopyrimidine-2,4-dioxamate] | 52.3 | 31.6 | – | – | – | – |
| CCOC(=O)C(=O)Nc1cc(Cl)nc(NC(=O)C(=O)OCC)n1 [diethyl 4-chloropyrimidine-2,6-dioxamate monohydrate] | 52.7 | 24.5 | – | – | 41.7 | – |
| CCOC(=O)C(=O)Nc1cc(N2CCOCC2)nc(NC(=O)C(=O)OCC)n1 [diethyl 6-morpholinopyrimidine-2,4-dioxamate] | 52.6 | 36.2 | – | – | 96.6 | 91.7 |
| CCCOC(=O)C(=O)Nc1cc(N2CCOCC2)nc(NC(=O)C(=O)OCCC)n1 [di-n-propyl 6-morpholinopyrimidine-2,4-dioxamate] | 50 | 29.8 | – | – | – | – |
| CCOC(=O)C(=O)Nc1cc(OC)nc(NC(=O)C(=O)OCC)n1 [diethyl 6-methoxypyrimidine-2,4-dioxamate monohydrate] | 57.6 | 44.2 | – | – | 83.4 | – |
| CC(C)OC(=O)C(=O)Nc1cc(N2CCOCC2)nc(NC(=O)C(=O)OC(C)C)n1 [diisopropyl 6-morpholinopyrimidine-2,4-dioxamate] | 59.9 | 30.8 | 100 | – | – | – |
| CCOC(=O)C(=O)Nc1cc(N2CCCCC2)nc(NC(=O)C(=O)OCC)n1 [diethyl 6-piperidinopyrimidine-2,4-dioxamate] | 46.6 | 12.2 | 100 | – | 92.4 | 90.6 |
| COC(=O)C(=O)Nc1cc(N2CCCCC2)nc(NC(=O)C(=O)OC)n1 [dimethyl 6-piperidinopyrimidine-2,4-dioxamate] | 50 | 32.1 | – | – | 85.6 | 54.4 |
